Assay results: publication PMC10609273, “Radiosynthesis and Early Evaluation of a Positron Emission Tomography Imaging Probe [^18F]AGAL Targeting Alpha-Galactosidase A Enzyme for Fabry Disease” (Molecules, 2023)

Columns and labels:
Format in all cases: in vitro ADME
CYP2C8 = target: T1, CYP2C8 (Homo sapiens, UniProt P10632); experiment: Reversible CYP inhibition in pooled HLMs; conditions: 30 µM compound, substrate amodiaquine
T1 construct: from tissue; host or cells: pooled human liver microsomes (n = 200)
T1 sequence (P10632 1-490): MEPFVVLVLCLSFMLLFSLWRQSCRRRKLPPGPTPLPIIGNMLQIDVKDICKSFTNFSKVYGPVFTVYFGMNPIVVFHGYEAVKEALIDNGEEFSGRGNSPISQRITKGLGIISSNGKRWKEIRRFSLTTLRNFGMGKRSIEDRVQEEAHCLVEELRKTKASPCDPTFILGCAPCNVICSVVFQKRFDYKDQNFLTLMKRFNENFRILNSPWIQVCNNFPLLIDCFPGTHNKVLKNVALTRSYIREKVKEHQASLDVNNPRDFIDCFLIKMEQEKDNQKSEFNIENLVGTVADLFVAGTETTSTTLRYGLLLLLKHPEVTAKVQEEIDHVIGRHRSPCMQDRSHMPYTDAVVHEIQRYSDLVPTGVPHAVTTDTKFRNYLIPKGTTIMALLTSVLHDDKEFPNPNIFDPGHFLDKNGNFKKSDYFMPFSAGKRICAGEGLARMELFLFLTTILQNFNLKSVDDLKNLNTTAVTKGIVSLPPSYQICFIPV
Method: (§1) All chemicals and reagents including control compounds were purchased from commercial sources such as Sigma-Aldrich or Toronto Research Chemicals. The test article was tested for reversible inhibition of CYPs in human liver microsomes (HLM) (0.2 mg/mL protein) at a concentration range of 0–30 μM. Each condition was incubated in duplicate. The test article (0–30 μM), NADPH, and the CYP-selective probe substrate were incubated in a 96-well plate at 37 °C in 0.1 M potassium phosphate buffer, pH 7.4. The reactions were initiated by adding the HLMs. The total reaction volume was 100 μL.
(§2) After the incubation period (10 min for CYP1A2, 2B6, and 2C9; 15 min for CYP2C19; and 4 min for CYP2C8 and 2D6 to accommodate linear kinetic conditions) at 37 °C, the reactions were terminated by the addition of 100 μL of ice-cold acetonitrile-containing carbutamide as an IS, then centrifuged at 2500× g for 10 min at 2 °C. A 150 μL aliquot of supernatant for each CYP assay, except for CYP1A2, was then transferred to a new plate for analysis. For CYP1A2, 80 μL of supernatant was transferred to the plate and further diluted with 80 μL of water before analysis. All samples were analyzed with liquid chromatography with tandem mass spectrometry (LC–MS/MS).

CYP2C9 = target: T2, CYP2C9 (Homo sapiens, UniProt P11712); experiment: Reversible CYP inhibition in pooled HLMs; conditions: 30 µM compound, substrate diclofenac
T2 construct: from tissue; host or cells: pooled human liver microsomes (n = 200)
T2 sequence (P11712 whole entry): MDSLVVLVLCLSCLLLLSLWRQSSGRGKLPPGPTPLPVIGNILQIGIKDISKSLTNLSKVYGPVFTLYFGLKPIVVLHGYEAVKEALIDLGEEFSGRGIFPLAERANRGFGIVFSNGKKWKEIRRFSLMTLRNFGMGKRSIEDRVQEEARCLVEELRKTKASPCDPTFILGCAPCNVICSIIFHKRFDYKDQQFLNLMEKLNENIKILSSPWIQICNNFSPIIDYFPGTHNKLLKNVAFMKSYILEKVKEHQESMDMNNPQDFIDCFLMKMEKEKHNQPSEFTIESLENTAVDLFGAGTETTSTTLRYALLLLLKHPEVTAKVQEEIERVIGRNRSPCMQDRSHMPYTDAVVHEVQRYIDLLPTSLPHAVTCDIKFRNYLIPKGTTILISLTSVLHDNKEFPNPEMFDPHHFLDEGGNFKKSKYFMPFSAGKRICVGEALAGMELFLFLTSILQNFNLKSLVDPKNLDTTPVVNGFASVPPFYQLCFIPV
Method: as §1, §2

CYP2C19 = target: T3, CYP2C19 (Homo sapiens, UniProt P33261); experiment: Reversible CYP inhibition in pooled HLMs; conditions: 30 µM compound, substrate S-mephenytoin
T3 construct: from tissue; host or cells: pooled human liver microsomes (n = 200)
T3 sequence (P33261 whole entry): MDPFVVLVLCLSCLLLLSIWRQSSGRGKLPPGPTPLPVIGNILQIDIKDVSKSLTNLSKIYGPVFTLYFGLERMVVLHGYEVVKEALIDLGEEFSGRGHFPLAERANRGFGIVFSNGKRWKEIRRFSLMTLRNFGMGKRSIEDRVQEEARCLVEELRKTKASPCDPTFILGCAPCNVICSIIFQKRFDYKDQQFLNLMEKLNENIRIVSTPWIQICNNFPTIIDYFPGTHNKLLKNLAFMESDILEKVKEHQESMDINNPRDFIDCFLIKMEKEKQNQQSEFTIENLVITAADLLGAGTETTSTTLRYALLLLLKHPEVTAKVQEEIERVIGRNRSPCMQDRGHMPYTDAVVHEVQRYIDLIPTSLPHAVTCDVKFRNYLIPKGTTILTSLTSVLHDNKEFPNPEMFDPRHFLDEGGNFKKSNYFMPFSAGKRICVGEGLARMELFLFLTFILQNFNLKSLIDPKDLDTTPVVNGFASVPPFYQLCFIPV
Method: as §1, §2

CYP1A2 = target: T4, CYP1A2 (Homo sapiens, UniProt P05177); experiment: Reversible CYP inhibition in pooled HLMs; conditions: 30 µM compound, substrate phenacetin
T4 construct: from tissue; host or cells: pooled human liver microsomes (n = 200)
T4 sequence (P05177 1-516): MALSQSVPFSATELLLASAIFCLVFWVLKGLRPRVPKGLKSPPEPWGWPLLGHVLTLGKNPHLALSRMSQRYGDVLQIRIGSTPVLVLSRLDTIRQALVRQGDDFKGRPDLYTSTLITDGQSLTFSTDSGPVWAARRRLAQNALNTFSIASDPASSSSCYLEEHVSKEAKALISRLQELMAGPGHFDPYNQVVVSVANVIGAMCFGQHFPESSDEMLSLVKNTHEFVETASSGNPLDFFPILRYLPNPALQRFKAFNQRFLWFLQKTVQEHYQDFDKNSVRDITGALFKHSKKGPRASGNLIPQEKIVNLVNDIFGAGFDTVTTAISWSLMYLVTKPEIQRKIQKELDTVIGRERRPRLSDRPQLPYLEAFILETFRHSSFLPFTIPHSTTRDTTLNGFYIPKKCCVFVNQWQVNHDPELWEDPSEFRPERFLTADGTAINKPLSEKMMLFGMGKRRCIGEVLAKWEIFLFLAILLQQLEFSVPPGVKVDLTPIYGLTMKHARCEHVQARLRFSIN
Method: as §1, §2

[1] = In vitro liver microsomal metabolism study, rat; conditions: rat liver microsomes
Method: Metabolic stability was assessed by incubating compounds in the presence of human, rat, and mouse liver microsomal fractions (Xenotech, Kansas City, KS, USA). All chemicals and reagents, including control compounds, were purchased from commercial sources such as Sigma-Aldrich (St. Louis, MO, USA) or Toronto Research Chemicals (North York, ON, Canada). Liver microsomal incubations were conducted with 100 mM phosphate buffer, 0.5 mg/mL of liver microsomal protein, 2 mM NADPH, 2.5 mM UDPGA, 3 mM MgCl2, alamethicin, and 1 μM test article for a total incubation volume of 80 µL. All reagents except the liver microsomes were mixed together and aliquoted (60 μL) into 96-well plates. The reaction was initiated by adding the microsomes (20 μL). At 0, 3, 7, 12, 20, and 30 min time points, the reactions were terminated with the addition of acetonitrile-containing carbutamide (as an internal standard). The terminated samples were then centrifuged at 2 °C to pellet the protein and the supernatant was injected onto an LC–MS. The test article was monitored for loss over time and the t1/2 was determined. The calculated t1/2 was then used as described below to determine the Eh (hepatic extraction ratio) for both human and rat.
The intrinsic clearance (CLint), hepatic clearance (CLh), and hepatic extraction ratio (Eh) were calculated using the equations below. CLint = (0.693/t1/2 in vitro) × (mL incubation volume/mg microsomal protein) × (X mg of microsomal protein/gram of liver) × (Y g of liver/kg of body weight)(1) CLh = Q × CLint/Q + CLint(2) Eh = CLh/Q(3) where: • CLint = intrinsic clearance (calculated from microsomal incubations) • X = 40 for human, 41.5 for rat and 45 for mouse • Y = 21.4 for human, 40 for rat and 50 for mouse • t1/2 = half-life • CLh = hepatic clearance • Q = liver blood flow rate = 1.24 L/h/kg for human, 4.8 L/h/kg for rat, and 5.4 L/h/kg for mouse • Eh = hepatic extraction ratio • CLh = hepatic clearance

- reversible inhibition of CYP2C8 activity (CYP2C8): no significant loss of CYP activity
- reversible inhibition of CYP2C9 activity (CYP2C9): no significant loss of CYP activity
- reversible inhibition of CYP2C19 activity (CYP2C19): no significant loss of CYP activity
- reversible inhibition of CYP1A2 activity (CYP1A2): no significant loss of CYP activity
- CLh [1]: 55.7 mL/min/kg
- Eh (hepatic extraction ratio) [1]: 0.695
- microsomal stability, clearance in words [1]: moderately cleared
- CLint scaled at 1 µM ([1]; 1 μM, NADPH + UDPGA): 182 mL/min/kg
SMILES: O=C(CCCCCCCn1cc(CCCF)nn1)N1[C@@H]2[C@H](O)[C@@H](O)[C@@H](O)[C@@H](CO)[C@@H]21 [AGAL]
